pIC50: −log10 of the molar value.
Biological target: human PD-L1 / Human PD-1 (Homo sapiens (Human), UniProt Q9NZQ7)
Assay: Enzyme-Linked Immunosorbent Assay (ELISA), human PD-1 binding to plate-coated human PD-L1
Settings: PD-1/PD-L1 ELISA, absorbance at 450 nm
Description: Biological Example: Enzyme-Linked Immunosorbent Assay—ELISA
96 Well plates were coated with 1 μg/mL of human PD-L1 (obtained from R&D) in PBS overnight at 4° C. The wells were then blocked with 2% BSA in PBS (W/V) with 0.05% TWEEN-20 for 1 hour at 37° C. The plates were washed 3 times with PBS/0.05% TWEEN-20 and the compounds were serial diluted (1:5) in dilution medium and added to the ELISA plates. Human PD-1 and biotin 0.3 μg/mL (ACRO Biosystems) were added and incubated for 1 hour at 37° C. then washed 3 times with PBS/0.05% TWEEN-20. A second block was performed with 2% BSA in PBS (W/V)/0.05% TWEEN-20 for 10 min at 37° C. and was washed 3 times with PBS/0.05% TWEEN-20. Streptavidin-HRP was added for 1 hour at 37° C. then washed 3 times with PBS/0.05% TWEEN-20. TMB substrate was added and reacted for 20 min at 37° C. A stop solution (2 N aqueous H2SO4) was added. The absorbance was read at 450 nm using a micro-plate spectrophotometer.

human PD-L1 / Human PD-1, sequence (Q9NZQ7 19-239): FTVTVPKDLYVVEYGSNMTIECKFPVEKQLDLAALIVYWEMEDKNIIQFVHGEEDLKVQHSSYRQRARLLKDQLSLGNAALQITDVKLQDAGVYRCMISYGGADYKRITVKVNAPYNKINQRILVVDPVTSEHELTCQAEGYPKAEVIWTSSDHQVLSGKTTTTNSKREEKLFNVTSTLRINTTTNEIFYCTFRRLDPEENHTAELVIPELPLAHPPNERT

pIC50	Compound
≥ 8.30	Cc1c(OCCCN2CCC(O)CC2)cccc1-c1cccc2c1CC[C@@H]2Oc1cc(OCc2cncc(C#N)c2)c(CN[C@@](C)(CO)C(=O)O)cc1Cl
≥ 8.30	Cc1c(OCCCN2CCC(O)CC2)cccc1-c1cccc2c1CC[C@@H]2Oc1cc(OCCCN2CC[C@@H](O)C2)c(CN[C@@H]2CCCC[C@@H]2O)cc1Cl
≥ 8.30	C[C@@](CO)(NCc1cc(Cl)c(OC2CCc3c(-c4cccc(OCCCN5CC(O)C5)c4Cl)cc(F)cc32)cc1OCc1cncc(C#N)c1)C(=O)O (stereo partly shown)
6.30 to 8.30	COc1cc(OC2CCc3c(-c4cccc(OCCCN5CC(O)C5)c4Cl)cccc32)cc(OC)c1CN[C@@](C)(CO)C(=O)O (stereo partly shown)
6.30 to 8.30	N#Cc1cncc(COc2cc(O[C@H]3CCc4c(-c5cccc(OCCCN6CCC(F)CC6)c5Cl)cccc43)c(Cl)cc2CN[C@@H]2CCCC[C@H]2F)c1
6.30 to 8.30	N#Cc1cncc(COc2cc(O[C@H]3CCc4c(-c5cccc(OCCCn6ccnc6)c5Cl)cccc43)c(Cl)cc2CN[C@@H]2CCCC[C@@H]2O)c1
6.30 to 8.30	Cc1c(OCCCN2CCC(F)CC2)cccc1-c1cc(F)cc2c1CCC2Oc1cc(OCc2cc(C#N)cc(C#N)c2)c(CN[C@H]2CCC(=O)NC2)cc1Cl (stereo partly shown)
6.30 to 8.30	CCOc1cc(NC2CCc3c(-c4cccc(OCCCN5CCC(C)(F)CC5)c4C)cccc32)c(Cl)cc1CNC[C@@H]1CCC(=O)N1 (stereo partly shown)
6.30 to 8.30	CCOc1cc(O[C@@H]2c3cccc(-c4cccc(OCCCN5CCC(C)(F)CC5)c4C)c3C[C@@H]2F)c(Cl)cc1CNC(C(=O)NS(C)(=O)=O)[C@@H](C)O (stereo partly shown)
6.30 to 8.30	CCOc1cc(NC2CCc3c(-c4cccc(OCCCN5CCCC5(C)C)c4C)cccc32)c(Cl)cc1CNC[C@@H]1CCC(=O)N1 (stereo partly shown)
